Measurements as given in US12065436B2, “Cardiac sarcomere inhibitors” (Cytokinetics, Inc., priority 2018, dated 2024).

Molecular target: bovine cardiac myofibrils (full-length cardiac myosin ATPase in the native sarcomere) (Bos taurus (Bovine), UniProt Q9BE39)
Assay: Skinned bovine cardiac myofibril ATPase assay (PK/LDH-coupled)
Type: biochemical
Settings: Ca2+ activating to 75% of maximal rate; for CDMF75 IC15: concentration giving 15% inhibition; for IC50: read-out: CDMF75 IC50
How it was run: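 Inhibition of steady-state ATPase read at 340 nm through a PK/LDH-coupled NADH system (0.5 mM NADH, 1.5 mM PEP). Detergent-skinned bovine cardiac myofibrils, 1 mg/mL, were tested at pH 6.8 in PIPES/MgCl2 with 50 μM ATP and calcium adjusted to give pCa50 or pCa75 activation.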

bovine cardiac myofibrils (full-length cardiac myosin ATPase in the native sarcomere), sequence (Q9BE39 whole entry): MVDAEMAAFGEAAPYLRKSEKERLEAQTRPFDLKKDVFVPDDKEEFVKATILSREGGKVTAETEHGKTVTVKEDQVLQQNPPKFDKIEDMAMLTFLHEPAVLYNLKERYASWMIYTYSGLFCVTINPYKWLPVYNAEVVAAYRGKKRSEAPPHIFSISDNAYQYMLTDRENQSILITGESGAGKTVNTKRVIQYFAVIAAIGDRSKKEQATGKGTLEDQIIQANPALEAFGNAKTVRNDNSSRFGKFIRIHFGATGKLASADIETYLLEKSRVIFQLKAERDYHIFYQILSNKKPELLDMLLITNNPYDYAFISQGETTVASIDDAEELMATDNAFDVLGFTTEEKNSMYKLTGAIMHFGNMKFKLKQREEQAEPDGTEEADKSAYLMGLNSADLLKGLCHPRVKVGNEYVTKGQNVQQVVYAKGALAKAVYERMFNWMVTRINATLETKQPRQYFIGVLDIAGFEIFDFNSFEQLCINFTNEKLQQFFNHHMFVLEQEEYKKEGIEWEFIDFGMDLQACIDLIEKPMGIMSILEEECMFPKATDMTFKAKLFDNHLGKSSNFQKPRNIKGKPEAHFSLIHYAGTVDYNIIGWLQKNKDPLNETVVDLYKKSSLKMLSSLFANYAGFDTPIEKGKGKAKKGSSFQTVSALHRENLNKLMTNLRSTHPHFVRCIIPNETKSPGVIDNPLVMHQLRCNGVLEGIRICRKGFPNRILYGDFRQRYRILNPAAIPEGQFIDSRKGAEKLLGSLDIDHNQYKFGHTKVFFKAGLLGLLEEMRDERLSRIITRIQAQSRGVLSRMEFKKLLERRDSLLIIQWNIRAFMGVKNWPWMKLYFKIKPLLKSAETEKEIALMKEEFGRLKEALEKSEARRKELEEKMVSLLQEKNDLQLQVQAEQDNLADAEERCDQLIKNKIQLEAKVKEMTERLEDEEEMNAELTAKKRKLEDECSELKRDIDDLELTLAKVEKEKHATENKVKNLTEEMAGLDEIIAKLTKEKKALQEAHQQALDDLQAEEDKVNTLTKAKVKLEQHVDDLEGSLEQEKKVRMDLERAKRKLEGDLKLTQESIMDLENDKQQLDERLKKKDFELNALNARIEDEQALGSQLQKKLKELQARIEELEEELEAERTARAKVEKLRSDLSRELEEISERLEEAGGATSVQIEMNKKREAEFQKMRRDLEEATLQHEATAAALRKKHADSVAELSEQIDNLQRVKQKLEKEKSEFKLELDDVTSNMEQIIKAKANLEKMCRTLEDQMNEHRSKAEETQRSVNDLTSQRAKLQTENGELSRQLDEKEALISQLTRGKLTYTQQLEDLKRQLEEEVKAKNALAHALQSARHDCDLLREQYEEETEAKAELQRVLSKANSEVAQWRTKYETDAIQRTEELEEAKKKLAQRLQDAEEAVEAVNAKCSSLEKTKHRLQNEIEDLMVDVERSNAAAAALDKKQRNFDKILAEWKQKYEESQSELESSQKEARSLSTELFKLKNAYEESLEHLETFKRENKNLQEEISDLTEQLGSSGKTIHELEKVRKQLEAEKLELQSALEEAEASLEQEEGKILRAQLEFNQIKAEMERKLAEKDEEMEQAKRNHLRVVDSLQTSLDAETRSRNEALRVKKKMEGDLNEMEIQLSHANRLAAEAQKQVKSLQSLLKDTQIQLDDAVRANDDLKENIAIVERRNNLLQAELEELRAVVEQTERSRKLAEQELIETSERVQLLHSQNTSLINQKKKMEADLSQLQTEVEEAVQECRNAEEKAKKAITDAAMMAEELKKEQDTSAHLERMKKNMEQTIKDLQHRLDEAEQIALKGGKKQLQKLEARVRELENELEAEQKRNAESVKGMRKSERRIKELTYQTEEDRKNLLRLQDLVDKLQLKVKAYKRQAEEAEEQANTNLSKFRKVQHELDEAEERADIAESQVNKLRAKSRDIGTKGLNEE
bovine cardiac myofibrils (full-length cardiac myosin ATPase in the native sarcomere), sequence (P85100 whole entry partner): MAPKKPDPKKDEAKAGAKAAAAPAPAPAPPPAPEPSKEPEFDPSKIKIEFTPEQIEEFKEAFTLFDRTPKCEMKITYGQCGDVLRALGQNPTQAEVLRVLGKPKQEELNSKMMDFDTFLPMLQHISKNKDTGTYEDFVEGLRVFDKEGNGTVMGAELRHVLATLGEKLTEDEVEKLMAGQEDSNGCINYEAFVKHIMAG
bovine cardiac myofibrils (full-length cardiac myosin ATPase in the native sarcomere), sequence (Q3SZE5 whole entry partner): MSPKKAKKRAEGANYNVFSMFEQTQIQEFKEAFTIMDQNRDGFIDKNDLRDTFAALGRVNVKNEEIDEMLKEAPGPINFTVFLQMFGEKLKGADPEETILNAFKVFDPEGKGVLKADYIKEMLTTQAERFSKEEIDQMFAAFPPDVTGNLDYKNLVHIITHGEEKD

Structure (SMILES)	CDMF75 IC15 [nM]	IC50 [nM]
Cc1noc(-c2ccc3c(c2)CC[C@H]3NC(=O)c2cnc(C)o2)n1 [Compound 202, (R)-2-methyl-N-(5-(3-methyl-1,2,4-oxadiazol-5-yl)-2,3-dihydro-1H-inden-1-yl)oxazole-5-carboxamide]	2600	10500
Cc1noc(-c2ccc3c(c2)CC[C@H]3NC(=O)c2nnn(C)n2)n1 [Compound 203, (R)-2-methyl-N-(5-(3-methyl-1,2,4-oxadiazol-5-yl)-2,3-dihydro-1H-inden-1-yl)-2H-tetrazole-5-carboxamide]	1000	3600
Cc1ncc(C(=O)NC2COc3cc(-c4noc(C(F)F)n4)ccc32)o1 (centres unmarked) [Compound 205, N-(6-(5-(difluoromethyl)-1,2,4-oxadiazol-3-yl)-2,3-dihydrobenzofuran-3-yl)-2-methyloxazole-5-carboxamide]	1100	4000
Cc1nn(C)cc1C(=O)NC1COc2cc(-c3noc(C(F)F)n3)ccc21 (centres unmarked) [Compound 207, N-(6-(5-(difluoromethyl)-1,2,4-oxadiazol-3-yl)-2,3-dihydrobenzofuran-3-yl)-1,3-dimethyl-1H-pyrazole-4-carboxamide]	1000	3600
Cc1nc(-c2ccc3c(c2)OCC3NC(=O)c2cnn(C)c2)no1 (centres unmarked) [Compound 212, 1-methyl-N-(6-(5-methyl-1,2,4-oxadiazol-3-yl)-2,3-dihydrobenzofuran-3-yl)-1H-pyrazole-4-carboxamide]	1700	6000
Cc1cc(C(=O)N[C@@H]2CCc3cc(-c4nc(C(F)F)no4)ccc32)n(C)n1 [Compound 213, (R)-N-(5-(3-(difluoromethyl)-1,2,4-oxadiazol-5-yl)-2,3-dihydro-1H-inden-1-yl)-1,3-dimethyl-1H-pyrazole-5-carboxamide]	1200	4700
Cc1nn(C)cc1C(=O)N[C@@H]1CCc2cc(-c3nc(C(F)F)no3)ccc21 [Compound 214, (R)-N-(5-(3-(difluoromethyl)-1,2,4-oxadiazol-5-yl)-2,3-dihydro-1H-inden-1-yl)-1,3-dimethyl-1H-pyrazole-4-carboxamide]	1300	4900
Cc1ncc(C(=O)N[C@@H]2CCc3cc(-c4nc(C(F)F)no4)ccc32)o1 [Compound 215, (R)-N-(5-(3-(difluoromethyl)-1,2,4-oxadiazol-5-yl)-2,3-dihydro-1H-inden-1-yl)-2-methyloxazole-5-carboxamide]	3000	12400
Cn1nnc(C(=O)N[C@@H]2CCc3cc(-c4nc(C(F)F)no4)ccc32)n1 [Compound 216, (R)-N-(5-(3-(difluoromethyl)-1,2,4-oxadiazol-5-yl)-2,3-dihydro-1H-inden-1-yl)-2-methyl-2H-tetrazole-5-carboxamide]	1300	4900
Cn1nccc1C(=O)N[C@H]1COc2cc(-c3noc(C4CC4)n3)ccc21 [Compound 220, (R)-N-(6-(5-cyclopropyl-1,2,4-oxadiazol-3-yl)-2,3-dihydrobenzofuran-3-yl)-1-methyl-1H-pyrazole-5-carboxamide]	38300	> 39200
COCc1nc(-c2ccc3c(c2)OCC3NC(=O)c2ccnn2C)no1 (centres unmarked) [Compound 223, N-(6-(5-(methoxymethyl)-1,2,4-oxadiazol-3-yl)-2,3-dihydrobenzofuran-3-yl)-1-methyl-1H-pyrazole-5-carboxamide]	1300	4200
COCc1nc(-c2ccc3c(c2)OC[C@@H]3NC(=O)c2cc(C)nn2C)no1 [Compound 225, (R)-N-(6-(5-(methoxymethyl)-1,2,4-oxadiazol-3-yl)-2,3-dihydrobenzofuran-3-yl)-1,3-dimethyl-1H-pyrazole-5-carboxamide]	39200	39200
COCc1nc(-c2ccc3c(c2)OCC3NC(=O)c2cc(C)nn2C)no1 (centres unmarked) [Compound 226, N-(6-(5-(methoxymethyl)-1,2,4-oxadiazol-3-yl)-2,3-dihydrobenzofuran-3-yl)-1,3-dimethyl-1H-pyrazole-5-carboxamide]	1200	4000
Cn1nnc(C(=O)NC2COc3cc(-c4noc(C5CC5)n4)ccc32)n1 (centres unmarked) [Compound 234, N-(6-(5-cyclopropyl-1,2,4-oxadiazol-3-yl)-2,3-dihydrobenzofuran-3-yl)-2-methyl-2H-tetrazole-5-carboxamide]	1900	8000

Now those with a lower IC50, led by results:

CDMF75 IC15 [nM]	IC50 [nM]	Structure (SMILES)
500	1800	Cc1noc(-c2ccc3c(c2)CC[C@H]3NC(=O)c2ccnn2C)n1 [Compound 204, (R)-1-methyl-N-(5-(3-methyl-1,2,4-oxadiazol-5-yl)-2,3-dihydro-1H-inden-1-yl)-1H-pyrazole-5-carboxamide]
700	2300	Cc1ncc(C(=O)N[C@@H]2COc3cc(-c4noc(C(F)F)n4)ccc32)o1 [Compound 206, (S)-N-(6-(5-(difluoromethyl)-1,2,4-oxadiazol-3-yl)-2,3-dihydrobenzofuran-3-yl)-2-methyloxazole-5-carboxamide]
500	1600	Cc1nn(C)cc1C(=O)N[C@@H]1COc2cc(-c3noc(C(F)F)n3)ccc21 [Compound 208, (S)-N-(6-(5-(difluoromethyl)-1,2,4-oxadiazol-3-yl)-2,3-dihydrobenzofuran-3-yl)-1,3-dimethyl-1H-pyrazole-4-carboxamide]
900	3300	Cc1c(C(=O)NC2COc3cc(-c4noc(C(F)F)n4)ccc32)cnn1C (centres unmarked) [Compound 209, N-(6-(5-(difluoromethyl)-1,2,4-oxadiazol-3-yl)-2,3-dihydrobenzofuran-3-yl)-1,5-dimethyl-1H-pyrazole-4-carboxamide]
500	1600	Cc1c(C(=O)N[C@@H]2COc3cc(-c4noc(C(F)F)n4)ccc32)cnn1C [Compound 210, (S)-N-(6-(5-(difluoromethyl)-1,2,4-oxadiazol-3-yl)-2,3-dihydrobenzofuran-3-yl)-1,5-dimethyl-1H-pyrazole-4-carboxamide]
600	1900	Cn1nccc1C(=O)N[C@@H]1CCc2cc(-c3nc(C(F)F)no3)ccc21 [Compound 217, (R)—N-(5-(3-(difluoromethyl)-1,2,4-oxadiazol-5-yl)-2,3-dihydro-1H-inden-1-yl)-1-methyl-1H-pyrazole-5-carboxamide]
500	1600	Cn1cc(C(=O)N[C@@H]2COc3cc(-c4noc(C(F)F)n4)ccc32)cn1 [Compound 218, (S)-N-(6-(5-(difluoromethyl)-1,2,4-oxadiazol-3-yl)-2,3-dihydrobenzofuran-3-yl)-1-methyl-1H-pyrazole-4-carboxamide]
700	2500	Cn1cc(C(=O)NC2COc3cc(-c4noc(C(F)F)n4)ccc32)cn1 (centres unmarked) [Compound 219, N-(6-(5-(difluoromethyl)-1,2,4-oxadiazol-3-yl)-2,3-dihydrobenzofuran-3-yl)-1-methyl-1H-pyrazole-4-carboxamide]
600	2000	Cn1nccc1C(=O)NC1COc2cc(-c3noc(C4CC4)n3)ccc21 (centres unmarked) [Compound 221, N-(6-(5-cyclopropyl-1,2,4-oxadiazol-3-yl)-2,3-dihydrobenzofuran-3-yl)-1-methyl-1H-pyrazole-5-carboxamide]
600	2100	COCc1nc(-c2ccc3c(c2)OC[C@H]3NC(=O)c2ccnn2C)no1 [Compound 224, (S)-N-(6-(5-(methoxymethyl)-1,2,4-oxadiazol-3-yl)-2,3-dihydrobenzofuran-3-yl)-1-methyl-1H-pyrazole-5-carboxamide]
700	2200	COCc1nc(-c2ccc3c(c2)OC[C@H]3NC(=O)c2cc(C)nn2C)no1 [Compound 227, (S)-N-(6-(5-(methoxymethyl)-1,2,4-oxadiazol-3-yl)-2,3-dihydrobenzofuran-3-yl)-1,3-dimethyl-1H-pyrazole-5-carboxamide]
300	800	CCc1nc(-c2ccc3c(c2)OC[C@H]3NC(=O)c2ccnn2C)no1 [Compound 228, (S)—N-(6-(5-ethyl-1,2,4-oxadiazol-3-yl)-2,3-dihydrobenzofuran-3-yl)-1-methyl-1H-pyrazole-5-carboxamide]
500	1400	CCc1nc(-c2ccc3c(c2)OCC3NC(=O)c2ccnn2C)no1 (centres unmarked) [Compound 229, N-(6-(5-ethyl-1,2,4-oxadiazol-3-yl)-2,3-dihydrobenzofuran-3-yl)-1-methyl-1H-pyrazole-5-carboxamide]
600	1800	CCc1nc(-c2ccc3c(c2)OCC3NC(=O)c2cc(C)nn2C)no1 (centres unmarked) [Compound 230, N-(6-(5-ethyl-1,2,4-oxadiazol-3-yl)-2,3-dihydrobenzofuran-3-yl)-1,3-dimethyl-1H-pyrazole-5-carboxamide]
300	1000	CCc1nc(-c2ccc3c(c2)OC[C@H]3NC(=O)c2cc(C)nn2C)no1 [Compound 231, (S)-N-(6-(5-ethyl-1,2,4-oxadiazol-3-yl)-2,3-dihydrobenzofuran-3-yl)-1,3-dimethyl-1H-pyrazole-5-carboxamide]
700	2400	Cc1cc(C(=O)NC2COc3cc(-c4noc(C5CC5)n4)ccc32)n(C)n1 (centres unmarked) [Compound 232, N-(6-(5-cyclopropyl-1,2,4-oxadiazol-3-yl)-2,3-dihydrobenzofuran-3-yl)-1,3-dimethyl-1H-pyrazole-5-carboxamide]
300	1100	Cc1cc(C(=O)N[C@@H]2COc3cc(-c4noc(C5CC5)n4)ccc32)n(C)n1 [Compound 233, (S)-N-(6-(5-cyclopropyl-1,2,4-oxadiazol-3-yl)-2,3-dihydrobenzofuran-3-yl)-1,3-dimethyl-1H-pyrazole-5-carboxamide]
